According to ChEMBL document CHEMBL3885881, “DrugMatrix”:

Species: Rattus norvegicus
Test: DrugMatrix - Regimen: Daily Repeat
Assay type: toxicity, organism-based, Sprague-Dawley
Parameters: regimen Daily Repeat, gender Male, age 6-8 weeks
Conditions: in vivo, po, route oral GAVAGE, vehicle 100 % WATER; for ABSOLUTE BASOPHIL / ABSOLUTE EOSINOPHIL / ABSOLUTE LYMPHOCYTE / ABSOLUTE MONOCYTE / ABSOLUTE SEGMENTED NEUTROPHIL / BASOPHIL / EOSINOPHIL / ERYTHROCYTE COUNT / HEMATOCRIT / HEMOGLOBIN / LEUKOCYTE COUNT / LYMPHOCYTE / MEAN CORPUSCULAR HEMOGLOBIN / MEAN CORPUSCULAR HEMOGLOBIN CONCENTRATION / MEAN CORPUSCULAR VOLUME / MONOCYTE / NEUTROPHIL / NUCLEATED RED BLOOD CELLS / PLATELET COUNT: tissue Blood; for ALANINE AMINOTRANSFERASE / ALBUMIN / ALKALINE PHOSPHATASE / ASPARTATE AMINOTRANSFERASE / BLOOD UREA NITROGEN / CARBON DIOXIDE / CHLORIDE / CHOLESTEROL / CREATINE PHOSPHOKINASE / CREATININE / GLUCOSE / LACTATE DEHYDROGENASE / LIPASE / PHOSPHORUS / POTASSIUM / SODIUM / TOTAL BILIRUBIN / TOTAL PROTEIN / URIC ACID: tissue Plasma
[1] = 0 mg/kg, 72 h, dose level Control, time 3 day
[2] = 0 mg/kg, 120 h, dose level Control, time 5 day
[3] = 28 mg/kg, 72 h, dose level Low, time 3 day

## CS(=O)(=O)c1ccc([C@@H](O)[C@@H](CO)NC(=O)C(Cl)Cl)cc1 [THIAMPHENICOL]
[1]
  ABSOLUTE BASOPHIL: 0 CELLS/uL
  ABSOLUTE EOSINOPHIL: 151.33 CELLS/uL
  ABSOLUTE LYMPHOCYTE: 10599.5 CELLS/uL
  ABSOLUTE MONOCYTE: 109.5 CELLS/uL
  ABSOLUTE SEGMENTED NEUTROPHIL: 1139.67 CELLS/uL
  BASOPHIL: 0%
  EOSINOPHIL: 0.83%
  ERYTHROCYTE COUNT: 5.54 x10E6/uL
  HEMATOCRIT: 35.35%
  HEMOGLOBIN: 13.22 G/DL
  LEUKOCYTE COUNT: 12 x10E3/uL
  LYMPHOCYTE: 89%
  MEAN CORPUSCULAR HEMOGLOBIN: 23.88 pg
  MEAN CORPUSCULAR HEMOGLOBIN CONCENTRATION: 37.4 G/DL
  MEAN CORPUSCULAR VOLUME: 63.85 fL
  MONOCYTE: 1%
  NEUTROPHIL: 9.17%
  NUCLEATED RED BLOOD CELLS: 0 /100WBC
  PLATELET COUNT: 1333.33 x10E3/uL
  ALANINE AMINOTRANSFERASE: 53.17 u/L
  ALBUMIN: 4.32 G/DL
  ALKALINE PHOSPHATASE: 404.33 u/L
  ASPARTATE AMINOTRANSFERASE: 83.17 u/L
  BLOOD UREA NITROGEN: 15.67 mg/dL
  CARBON DIOXIDE: 27.33 mmol/L
  CHLORIDE: 101.83 MEQ/L
  CHOLESTEROL: 68.67 mg/dL
  CREATINE PHOSPHOKINASE: 276.17 u/L
  CREATININE: 0.18 mg/dL
  GLUCOSE: 163.5 mg/dL
  LACTATE DEHYDROGENASE: 144.67 u/L
  LIPASE: 8.83 u/L
  PHOSPHORUS: 11.72 mg/dL
  POTASSIUM: 5.99 MEQ/L
  SODIUM: 143.57 MEQ/L
  TOTAL BILIRUBIN: 0.2 mg/dL
  TOTAL PROTEIN: 6.1 G/DL
  URIC ACID: 1.38 mg/dL
[2]
  ABSOLUTE BASOPHIL: 0 CELLS/uL
  ABSOLUTE EOSINOPHIL: 248.67 CELLS/uL
  ABSOLUTE LYMPHOCYTE: 12977.83 CELLS/uL
  ABSOLUTE MONOCYTE: 19.67 CELLS/uL
  ABSOLUTE SEGMENTED NEUTROPHIL: 1137.17 CELLS/uL
  BASOPHIL: 0%
  EOSINOPHIL: 1.67%
  ERYTHROCYTE COUNT: 5.82 x10E6/uL
  HEMATOCRIT: 36.35%
  HEMOGLOBIN: 13.58 G/DL
  LEUKOCYTE COUNT: 14.38 x10E3/uL
  LYMPHOCYTE: 90.5%
  MEAN CORPUSCULAR HEMOGLOBIN: 23.32 pg
  MEAN CORPUSCULAR HEMOGLOBIN CONCENTRATION: 37.42 G/DL
  MEAN CORPUSCULAR VOLUME: 62.42 fL
  MONOCYTE: 0.17%
  NEUTROPHIL: 7.67%
  NUCLEATED RED BLOOD CELLS: 0 /100WBC
  PLATELET COUNT: 1337.67 x10E3/uL
  ALANINE AMINOTRANSFERASE: 48.5 u/L
  ALBUMIN: 4.32 G/DL
  ALKALINE PHOSPHATASE: 354.33 u/L
  ASPARTATE AMINOTRANSFERASE: 80 u/L
  BLOOD UREA NITROGEN: 16 mg/dL
  CARBON DIOXIDE: 27.33 mmol/L
  CHLORIDE: 100.33 MEQ/L
  CHOLESTEROL: 68 mg/dL
  CREATINE PHOSPHOKINASE: 325.17 u/L
  CREATININE: 0.23 mg/dL
  GLUCOSE: 172 mg/dL
  LACTATE DEHYDROGENASE: 254.83 u/L
  LIPASE: 8.33 u/L
  PHOSPHORUS: 12.17 mg/dL
  POTASSIUM: 6.28 MEQ/L
  SODIUM: 143.57 MEQ/L
  TOTAL BILIRUBIN: 0.18 mg/dL
  TOTAL PROTEIN: 6.12 G/DL
  URIC ACID: 1.78 mg/dL
[3]
  ABSOLUTE BASOPHIL: 0 CELLS/uL
  ABSOLUTE EOSINOPHIL: 49.67 CELLS/uL
  ABSOLUTE LYMPHOCYTE: 5981.33 CELLS/uL
  ABSOLUTE MONOCYTE: 18.33 CELLS/uL
  ABSOLUTE SEGMENTED NEUTROPHIL: 584 CELLS/uL
  BASOPHIL: 0%
  EOSINOPHIL: 0.67%
  ERYTHROCYTE COUNT: 5.43 x10E6/uL
  HEMATOCRIT: 34.57%
  HEMOGLOBIN: 13.07 G/DL
  LEUKOCYTE COUNT: 6.63 x10E3/uL
  LYMPHOCYTE: 90%
  MEAN CORPUSCULAR HEMOGLOBIN: 24 pg
  MEAN CORPUSCULAR HEMOGLOBIN CONCENTRATION: 37.8 G/DL
  MEAN CORPUSCULAR VOLUME: 63.6 fL
  MONOCYTE: 0.33%
  NEUTROPHIL: 9%
  NUCLEATED RED BLOOD CELLS: 0 /100WBC
  PLATELET COUNT: 1197 x10E3/uL
  ALANINE AMINOTRANSFERASE: 57.33 u/L
  ALBUMIN: 4.33 G/DL
  ALKALINE PHOSPHATASE: 344.67 u/L
  ASPARTATE AMINOTRANSFERASE: 83 u/L
  BLOOD UREA NITROGEN: 16 mg/dL
  CARBON DIOXIDE: 29 mmol/L
  CHLORIDE: 102.33 MEQ/L
  CHOLESTEROL: 74.33 mg/dL
  CREATINE PHOSPHOKINASE: 180 u/L
  CREATININE: 0.21 mg/dL
  GLUCOSE: 145.33 mg/dL
  LACTATE DEHYDROGENASE: 123 u/L
  LIPASE: 8.33 u/L
  PHOSPHORUS: 13.03 mg/dL
  POTASSIUM: 6.66 MEQ/L
  SODIUM: 147.17 MEQ/L
  TOTAL BILIRUBIN: 0.17 mg/dL
  TOTAL PROTEIN: 6.53 G/DL
  URIC ACID: 1.33 mg/dL
